{"source": "ChEMBL document CHEMBL1201862", "about": "“PubChem BioAssay data set” (2004)", "key": {"Vero": {"test_system": "Vero", "assay": "cells", "assay_type": "functional", "conditions": "Chlorocebus sabaeus"}, "HEK293": {"test_system": "HEK293", "assay": "EBV LMP1 TES2 canonical NF-kB signalling blockers – cell-based, HEK293, luciferase, cherry-pick, dose response (AID 588343)", "assay_type": "functional, Homo sapiens", "conditions": "Homo sapiens, HEK293"}, "[1]": {"target": "FAD-linked sulfhydryl oxidase ALR (Homo sapiens, UniProt P55789)", "sequence (P55789 whole entry)": "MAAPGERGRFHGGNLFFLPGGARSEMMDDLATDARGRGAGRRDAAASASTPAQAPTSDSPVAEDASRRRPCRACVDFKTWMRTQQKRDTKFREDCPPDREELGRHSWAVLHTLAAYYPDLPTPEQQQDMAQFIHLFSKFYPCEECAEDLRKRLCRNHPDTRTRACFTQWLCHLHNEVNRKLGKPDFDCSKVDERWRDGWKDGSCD", "assay": "ALR-catalysed DTT oxidation blockers – biochemical, H2O2 detection, luminescence, cherry-pick, dose response (AID 493248)"}, "[2]": {"target": "T1, Rac GTPase-activating protein 1 (Homo sapiens, UniProt Q9H0H5)", "T1 sequence (Q9H0H5 whole entry)": "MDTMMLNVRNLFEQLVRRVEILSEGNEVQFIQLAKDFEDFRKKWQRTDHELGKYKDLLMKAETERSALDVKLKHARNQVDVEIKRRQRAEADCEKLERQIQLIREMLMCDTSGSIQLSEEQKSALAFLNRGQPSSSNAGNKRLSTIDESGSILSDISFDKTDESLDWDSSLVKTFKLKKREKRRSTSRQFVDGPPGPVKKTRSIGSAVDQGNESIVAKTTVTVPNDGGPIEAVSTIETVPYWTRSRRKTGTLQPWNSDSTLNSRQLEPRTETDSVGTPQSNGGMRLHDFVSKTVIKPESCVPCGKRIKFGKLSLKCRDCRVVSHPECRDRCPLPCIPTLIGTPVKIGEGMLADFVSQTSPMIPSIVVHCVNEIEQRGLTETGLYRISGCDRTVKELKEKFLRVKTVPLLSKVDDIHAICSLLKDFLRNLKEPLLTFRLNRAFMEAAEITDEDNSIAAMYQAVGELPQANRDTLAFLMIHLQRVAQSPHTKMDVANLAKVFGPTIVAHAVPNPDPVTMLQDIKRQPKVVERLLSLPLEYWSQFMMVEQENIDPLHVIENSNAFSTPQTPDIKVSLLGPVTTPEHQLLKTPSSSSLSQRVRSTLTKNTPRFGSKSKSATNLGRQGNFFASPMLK", "assay": "blockers of MgcRacGAP-driven Rac1 GTP hydrolysis – biochemical, ADP Hunter fluorescence, primary and confirmatory, confirmation (AID 624330)", "assay_type": "functional"}, "H9c2": {"test_system": "H9c2", "assay": "cells", "assay_type": "functional, cell-based", "conditions": "Rattus norvegicus, H9c2, Myocardium"}, "Streptococcus": {"test_system": "Streptococcus", "assay": "GAS UMAA2166 growth inhibition – luminescence, BacTiterGlo, counter-screen for streptokinase expression inhibitor project, dose response (AID 1915);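 further: potency for reduction of bacterial viability or growth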", "assay_type": "functional, organism-based"}, "Streptokinase A": {"target": "T2, Streptokinase A (Streptococcus pyogenes serotype M1, UniProt P10520)", "T2 sequence (P10520 whole entry)": "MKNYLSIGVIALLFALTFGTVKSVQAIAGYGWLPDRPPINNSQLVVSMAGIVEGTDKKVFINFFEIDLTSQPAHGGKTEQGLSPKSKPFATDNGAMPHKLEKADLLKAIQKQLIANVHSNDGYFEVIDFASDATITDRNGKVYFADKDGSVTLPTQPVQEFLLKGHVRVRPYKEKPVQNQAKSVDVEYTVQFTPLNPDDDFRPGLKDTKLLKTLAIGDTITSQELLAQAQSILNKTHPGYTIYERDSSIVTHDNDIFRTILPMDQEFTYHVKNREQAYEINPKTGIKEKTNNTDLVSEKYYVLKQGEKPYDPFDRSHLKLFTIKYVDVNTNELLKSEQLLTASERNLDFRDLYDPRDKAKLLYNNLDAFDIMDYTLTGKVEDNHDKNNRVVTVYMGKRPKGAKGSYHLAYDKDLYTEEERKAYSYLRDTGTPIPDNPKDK", "assay": "viability-normalized secreted streptokinase activity reduction – plasminogen activation absorbance, OD405, dose response (AID 1914);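 further: secreted streptokinase activity via plasminogen activation per viability signal from cell pellet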", "assay_type": "functional, Streptococcus pyogenes M1 GAS"}, "[3]": {"test_system": "Streptococcus sp. 'group A'", "assay": "Streptococcus pyogenes SK(-)GAS viability under kanamycin – luminescence, BacTiterGlo, confirmation, counter-screen for streptokinase expression inhibitor project, dose response (AID 1900)", "assay_type": "functional, organism-based"}, "[4]": {"assay": "Luminescence Cell-Based Dose Confirmation HTS to Identify Inhibitors of Platelet Dense Granule Release. [Related pubchem assays: 1663 (Primary HTS), 1678 (Summary of Project)]", "assay_type": "functional"}, "[5]": {"target": "Luciferin 4-monooxygenase (Photinus pyralis, UniProt P08659)", "sequence (P08659 whole entry)": "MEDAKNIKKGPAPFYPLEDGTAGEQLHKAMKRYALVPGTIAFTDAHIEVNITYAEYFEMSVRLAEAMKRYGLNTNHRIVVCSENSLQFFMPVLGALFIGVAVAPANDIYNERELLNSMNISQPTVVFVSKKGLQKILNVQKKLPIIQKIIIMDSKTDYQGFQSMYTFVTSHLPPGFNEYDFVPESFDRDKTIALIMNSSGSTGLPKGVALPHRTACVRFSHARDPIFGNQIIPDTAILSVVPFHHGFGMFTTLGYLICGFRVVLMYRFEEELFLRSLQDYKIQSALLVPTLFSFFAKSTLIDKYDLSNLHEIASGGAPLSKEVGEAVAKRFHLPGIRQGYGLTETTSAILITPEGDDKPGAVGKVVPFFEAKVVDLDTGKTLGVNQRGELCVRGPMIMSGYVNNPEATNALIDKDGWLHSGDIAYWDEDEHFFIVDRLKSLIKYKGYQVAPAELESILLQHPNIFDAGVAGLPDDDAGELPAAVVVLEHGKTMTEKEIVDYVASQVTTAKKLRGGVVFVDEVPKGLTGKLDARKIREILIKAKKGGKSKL", "assay": "inhibition of purified Photinus pyralis luciferase – biochemical, luminescence, dose response (AID 1891)"}, "BJ [6]": {"test_system": "BJ", "assay": "cells", "assay_type": "functional, cell-based", "conditions": "Homo sapiens"}, "BJ [7]": {"test_system": "BJ", "assay": "BJ-TERT-LT-ST fibroblast viability loss – cell-based, RAS-independent, luminescence, dose response (AID 1935);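 further: BJ fibroblasts immortalized with TERT plus LT and ST oncogenes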", "assay_type": "functional", "conditions": "Homo sapiens"}, "BJ [8]": {"test_system": "BJ", "assay": "BJ-TERT fibroblast viability loss – cell-based, RAS-independent, luminescence, dose response (AID 1933)", "assay_type": "functional", "conditions": "Homo sapiens"}, "[9]": {"assay": "DRD fibroblast viability loss – cell-based, non-viral oncogenic, luminescence, dose response (AID 1934)", "assay_type": "functional", "conditions": "Homo sapiens"}, "[10]": {"assay": "NIH-3T3 fibroblast cytotoxicity, dose response, cytotoxicity control, cell-based, fluorescence, Alamar Blue, secondary assay (AID 2327);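 further: NIH-3T3 mouse fibroblasts cultured with fluconazole at 8 µg/mL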", "assay_type": "functional"}, "Cytochrome P450 2C9": {"target": "Cytochrome P450 2C9 (Homo sapiens, UniProt P11712)", "sequence (P11712 whole entry)": "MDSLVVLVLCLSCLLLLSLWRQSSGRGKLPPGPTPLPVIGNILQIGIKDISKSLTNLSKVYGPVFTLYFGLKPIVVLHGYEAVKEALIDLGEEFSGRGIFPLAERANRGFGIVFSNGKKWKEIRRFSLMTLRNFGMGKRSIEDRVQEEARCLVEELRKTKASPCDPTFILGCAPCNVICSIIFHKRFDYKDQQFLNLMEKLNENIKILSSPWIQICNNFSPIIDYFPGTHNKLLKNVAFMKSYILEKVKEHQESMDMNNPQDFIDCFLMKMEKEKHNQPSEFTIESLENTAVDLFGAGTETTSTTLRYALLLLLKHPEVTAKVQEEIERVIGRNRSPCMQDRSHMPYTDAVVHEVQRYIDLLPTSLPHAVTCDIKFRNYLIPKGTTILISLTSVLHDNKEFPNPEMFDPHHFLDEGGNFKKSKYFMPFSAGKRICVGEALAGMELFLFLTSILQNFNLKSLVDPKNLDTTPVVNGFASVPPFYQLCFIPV"}, "Cytochrome P450 2C19": {"target": "Cytochrome P450 2C19 (Homo sapiens, UniProt P33261)", "sequence (P33261 whole entry)": "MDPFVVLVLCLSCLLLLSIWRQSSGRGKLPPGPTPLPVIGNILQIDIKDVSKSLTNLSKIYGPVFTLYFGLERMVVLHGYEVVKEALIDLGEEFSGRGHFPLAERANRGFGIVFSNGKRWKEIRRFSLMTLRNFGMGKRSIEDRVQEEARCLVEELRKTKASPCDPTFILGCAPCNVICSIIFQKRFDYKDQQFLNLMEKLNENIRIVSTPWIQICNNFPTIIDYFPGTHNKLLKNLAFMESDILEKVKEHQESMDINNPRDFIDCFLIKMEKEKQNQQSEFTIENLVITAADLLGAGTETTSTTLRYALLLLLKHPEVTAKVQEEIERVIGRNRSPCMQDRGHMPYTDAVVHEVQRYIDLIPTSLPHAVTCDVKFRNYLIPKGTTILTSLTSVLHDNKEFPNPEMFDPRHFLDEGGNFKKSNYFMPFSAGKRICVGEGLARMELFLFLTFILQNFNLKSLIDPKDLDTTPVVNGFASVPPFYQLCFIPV", "assay": "Cytochrome panel assay with activity outcomes. Panel member name: p450-cyp2c19 Compounds with AC50 equal or less than 10 uM are considered active", "assay_type": "functional", "conditions": "read-out: AC50"}, "Cytochrome P450 2D6": {"target": "Cytochrome P450 2D6 (Homo sapiens, UniProt P10635)", "sequence (P10635 whole entry)": "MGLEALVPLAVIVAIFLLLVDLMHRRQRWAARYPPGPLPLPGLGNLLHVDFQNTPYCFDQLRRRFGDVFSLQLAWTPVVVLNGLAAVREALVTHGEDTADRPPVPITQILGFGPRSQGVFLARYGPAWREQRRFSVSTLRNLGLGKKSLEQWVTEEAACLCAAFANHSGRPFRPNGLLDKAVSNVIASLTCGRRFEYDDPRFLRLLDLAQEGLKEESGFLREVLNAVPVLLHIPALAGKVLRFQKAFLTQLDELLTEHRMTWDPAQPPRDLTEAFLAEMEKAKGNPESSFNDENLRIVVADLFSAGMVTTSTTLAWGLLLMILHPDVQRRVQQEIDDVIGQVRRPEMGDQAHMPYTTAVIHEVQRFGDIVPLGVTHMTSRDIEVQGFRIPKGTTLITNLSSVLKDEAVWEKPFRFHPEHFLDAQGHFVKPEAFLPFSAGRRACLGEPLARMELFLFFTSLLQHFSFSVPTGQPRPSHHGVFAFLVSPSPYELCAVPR"}}, "note": "Active and inactive are the calls of the source.", "data": [{"smiles": "CCOC(=O)c1oc2ccc(S(=O)(=O)n3nc(-c4ccc(Cl)cc4)cc3N)cc2c1C", "values": [{"measurement": "CC50", "setting": "Vero", "value": "> 25 µM (active)"}]}, {"smiles": "Cc1cccc(NC(=O)c2cnc3ccccn3c2=O)c1", "values": [{"measurement": "AC50", "setting": "HEK293", "value": "2.26 µM (active)"}]}, {"smiles": "Cc1cc(Oc2ncccc2[N+](=O)[O-])c2cc(Cl)ccc2n1", "values": [{"measurement": "AC50", "setting": "[1]", "value": "0.409 µM (active)"}]}, {"smiles": "COc1ccc(NCc2cc3ccccc3nc2O)cc1", "values": [{"measurement": "IC50", "setting": "[2]", "value": "94.7 µM (active)"}, {"measurement": "IC50", "setting": "H9c2", "value": "> 79 µM (inactive)"}]}, {"smiles": "O=C(NN/C=C1\\C(=O)N(c2ccccc2Cl)C(=O)c2ccccc21)C1COc2ccccc2O1", "note": "(stereo not given)", "values": [{"measurement": "EC50", "setting": "Streptococcus", "value": "7.4 µM (active)"}, {"measurement": "IC50", "setting": "H9c2", "value": "17.2 µM (active)"}, {"measurement": "EC50", "setting": "Streptokinase A", "value": "> 150 µM (not active)"}, {"measurement": "EC50", "setting": "[3]", "value": "6.64 µM (active)"}]}, {"smiles": "OC1CCN(c2c3c(nc4cc(-c5cccc(F)c5)nn24)CCCC3)CC1", "values": [{"measurement": "IC50", "setting": "H9c2", "value": "> 79 µM (inactive)"}]}, {"smiles": "Nc1cc2sc(-c3ccc(C(=O)O)cc3)nc2cc1Cl", "values": [{"measurement": "EC50", "setting": "[4]", "value": "1.32 µM (active)"}, {"measurement": "EC50", "setting": "[5]", "value": "0.441 µM (active)"}, {"measurement": "EC50", "setting": "BJ [6]", "value": "17 µM (active)"}, {"measurement": "EC50", "setting": "BJ [7]", "value": "> 150 µM (inconclusive)"}, {"measurement": "EC50", "setting": "BJ [8]", "value": "20.4 µM (active)"}, {"measurement": "EC50", "setting": "[9]", "value": "15.4 µM (active)"}]}, {"smiles": "COc1cccc(Oc2cnc(N)nc2-c2ccc(OC)cc2O)c1", "values": [{"measurement": "EC50", "setting": "BJ [6]", "value": "27.6 µM (active)"}, {"measurement": "EC50", "setting": "BJ [7]", "value": "67.1 µM (active)"}, {"measurement": "EC50", "setting": "BJ [8]", "value": "17.9 µM (inconclusive)"}, {"measurement": "EC50", "setting": "[9]", "value": "10.9 µM (active)"}]}, {"smiles": "O=C(CN1C(=O)CCC1=O)NNc1ccc2ccccc2c1", "values": [{"measurement": "AC50", "setting": "[1]", "value": "0.09 µM (active)"}, {"measurement": "EC50", "setting": "[10]", "value": "3.62 µM (active)"}]}, {"smiles": "COc1cc(OC)cc(C(=O)Nc2ccc(N3CCN(C(=O)c4cccs4)CC3)cc2)c1", "values": [{"measurement": "EC50", "setting": "BJ [6]", "value": "61.2 µM (active)"}, {"measurement": "EC50", "setting": "BJ [7]", "value": "> 150 µM (inconclusive)"}, {"measurement": "EC50", "setting": "BJ [8]", "value": "14.9 µM (active)"}, {"measurement": "EC50", "setting": "[9]", "value": "19.5 µM (active)"}]}, {"smiles": "CCCCCCCCCCCCCCCC(=O)NC[C@@H](COP(=O)([O-])OCC[N+](C)(C)C)OCC", "values": [{"measurement": "AC50", "setting": "Cytochrome P450 2C9", "value": "inconclusive"}, {"measurement": "AC50", "setting": "Cytochrome P450 2C19", "value": "39.8 µM (inconclusive)"}, {"measurement": "AC50", "setting": "Cytochrome P450 2D6", "value": "31.6 µM (inconclusive)"}]}, {"smiles": "CC(OC(=O)c1cc(-c2cccnc2)nc2ccccc12)C(=O)Nc1ccc2ccccc2c1", "note": "(stereo not given)", "values": [{"measurement": "IC50", "setting": "H9c2", "value": "> 79 µM (inactive)"}]}, {"smiles": "COc1cc(/C=C(\\C#N)c2nc3c(s2)CC(C)CC3)ccc1O", "note": "(stereo not given)", "values": [{"measurement": "AC50", "setting": "Cytochrome P450 2C9", "value": "inconclusive"}, {"measurement": "AC50", "setting": "Cytochrome P450 2C19", "value": "39.8 µM (inconclusive)"}, {"measurement": "AC50", "setting": "Cytochrome P450 2D6", "value": "28.2 µM (inconclusive)"}]}, {"smiles": "COc1cccc(NC(=O)c2oc3ccc(S(=O)(=O)N4CCOCC4)cc3c2C)c1", "values": [{"measurement": "IC50", "setting": "H9c2", "value": "> 79 µM (inactive)"}]}, {"smiles": "CCn1c2ccccc2c2nc3cc(OC)c(OC)cc3nc21", "values": [{"measurement": "IC50", "setting": "H9c2", "value": "> 79 µM (inactive)"}]}]}
